Assay results as given in patent US20040019118A1, “NMDA receptor antagonists and their use in inhibiting abnormal hyperphosphorylation of microtubule associated protein tau” (priority 2002, published 2004).
Entries after “also recorded” stand apart in the source; their conditions may differ. Where two headings read alike, the source gives them in different places.

What was measured:
[1] = biological target: T1, PP-2A (Rattus norvegicus, UniProt P63331); assay: PP-2A activity in extracts of treated hippocampal slice cultures; assay type: cell-based
T1 construct: from tissue; host or cells: organotypic culture of adult rat hippocampal slices; 16,000xg extract
T1 sequence (P63331 whole entry): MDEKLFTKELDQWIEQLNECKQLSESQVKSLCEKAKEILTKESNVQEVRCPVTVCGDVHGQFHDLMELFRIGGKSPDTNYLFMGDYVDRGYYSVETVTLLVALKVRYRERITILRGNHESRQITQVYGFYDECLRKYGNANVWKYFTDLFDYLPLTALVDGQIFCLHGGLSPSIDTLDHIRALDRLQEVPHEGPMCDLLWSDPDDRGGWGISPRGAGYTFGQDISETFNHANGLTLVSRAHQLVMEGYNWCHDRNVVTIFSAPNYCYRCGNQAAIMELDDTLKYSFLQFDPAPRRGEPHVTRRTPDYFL
Experimental: (§1) Organotypic cultures of rat hippocampal slices were prepared from 20-30 day old Wistar rats and cultured with the interface method as described previously (Stoppini, et al. 1991; Bahr, et al. 1995; Zhongrin, et al. 2000). The rats were anesthetized with ketamine (100 mg/kg body weight) and decapitated and the hippocampi were dissected out and sliced into 400 um coronal sections by a McIllwain tissue chopper. Select slices with uninterrupted bright transparent neuronal layers were plated, 1-3 slices/filter, onto Millicell CM filters (Millipore, Bedford, Mass.). For the first 2 days in vitro (DIV) cultures were maintained in 25% horse serum, 50% Basal Media-Eagle (BEM), 25% Eagle's Balanced Salt Solution (EBSS), 25 mM HEPES, 1 mM glutamine, 28 mM glucose, pH 7.2, at 32° C. in a 5% CO2 humidified atmosphere. The slice cultures were then switched to 25% horse serum, 50% BEM and EBSS modified so that the potassium concentration was 2.66 mM, for another 5 DIV. After 7 DIV, the cultures were maintained in physiological potassium containing 5% horse serum medium at 35° C. for at least 20 days before any treatment was applied. When the slices were treated, the reagents were applied into the culture medium. At different time points, the slices collected with a brush were washed twice in homogenizing buffer (50 mM HEPES, pH 7.0, 10 mM β-merceptoethanol [BME], 1 mM EDTA, 1 mM EGTA, 0.1 mM phenylmethyl sulfonyl fluoride [PMSF], 2.0 mM benzamidine and 2.0 μg/ml each of aprotinin, leupeptin and pepstatin) and homogenized at 4° C. using a Teflon-glass homogenizer. The homogenate was then divided into two parts, one was centrifuged at 16000×g for 15 min and the supernatant was used to assay activities of PP-2A and PP-1. The rest of the homogenate was diluted 1:1 with a phosphatase inhibitor cocktail (20 mM β-glycerophosphate, 2 mM Na3VO4 and 100 mM NaF, pH 7.0) and either used for Western blots or centrifuged at 16000×g for 15 min and the resulting supernatant used to determine the kinase activities.
(§2) Activities of PP-2A and PP-1 were assayed towards [^32P] phosphorylase-a as a substrate as described previously (Gong, et al. 1994). The phosphatase activity was assayed in 20 μl of reaction mixture containing 50 mM Tris, pH 7.0, 10 mM BME, 0.1 mM EDTA, 7.5 mM caffeine, 7.5 ng/μl [^32P]phosphorylase-a and 0.06 mg/ml slice culture extract. The reaction was started by adding ^32P-phosphorylase-a. After incubation for 30 min at 30° C., 7 μl of the reaction mixture was spotted on to 31 ETCHR chromatography paper which had been prespotted with 10 μl stop solution (4 mM ATP+20% TCA). Then the ^32p released was separated from the protein-incorporated ^32P by paper chromatography in 5% TCA and 0.2 M NaCl, paper strips dried, cut and counted by Cerenkov radiation. A PP-1 specific inhibitor, inhibitor-1 (Hitken, et al. 1982) was included in the assays for PP-2A activity. PP-1 activity was calculated by subtracting the PP-2A activity from the total phosphorylase-a phosphatase activity (PP-1/PP-2A) assayed in the absence of inhibitor-1.

[2] = tested on: CaMKII; assay: CaMKII activity in extracts of treated hippocampal slice cultures; assay type: cell-based, rat
Experimental: as §1
(§3) CaMKII activity was measured in 25 μl of buffer containing 50 mM HEPES, pH 7.5, 10 mM MgCl2, 2.0 mM CaCl2, 10 mM BME, 10 μg/ml calmodulin (CaM), 20 μM syntide (Sigma, St Louis Mo., USA), 0.06 mg/ml slice extract and 200 μM [γ^32P]ATP. The reaction was initiated by adding [γ32p] ATP. After incubation for 10 min at 30° C., 10 μl reaction mixture was removed and spotted on to phosphocellulose membrane. The membrane was then washed five times in 1% phosphoric acid to remove non-protein incorporated ^32P, dried and counted by Cerenkov radiation. The activity of PKA was determined as above except the reaction mixture contained 70 mM NaHPO4, pH 6.8, 14 mM MgCl2, 1.4 mM EDTA, 30 μM malantide (Sigma, St Louis, Mo., USA), 200 μM [γ^32p] ATP and 0.06 mg/ml slice extract.

[3] = tested on: PKA; assay: PKA activity in extracts of treated hippocampal slice cultures; assay type: cell-based, rat
Experimental: as §1, §3

[4] = tested on: pNF-H/M; assay: Immunohistochemical staining of neurofilaments (pNF-H/M) in cultured hippocampal slices; assay type: cell-based, rat; conditions: 100 nM OA 24 h
Experimental: Organotypic cultures of rat hippocampal slices were prepared from 20-30 day old Wistar rats and cultured with the interface method as described previously (Stoppini, et al. 1991; Bahr, et al. 1995; Zhongrin, et al. 2000). The rats were anesthetized with ketamine (100 mg/kg body weight) and decapitated and the hippocampi were dissected out and sliced into 400 um coronal sections by a McIllwain tissue chopper. Select slices with uninterrupted bright transparent neuronal layers were plated, 1-3 slices/filter, onto Millicell CM filters (Millipore, Bedford, Mass.). For the first 2 days in vitro (DIV) cultures were maintained in 25% horse serum, 50% Basal Media-Eagle (BEM), 25% Eagle's Balanced Salt Solution (EBSS), 25 mM HEPES, 1 mM glutamine, 28 mM glucose, pH 7.2, at 32° C. in a 5% CO2 humidified atmosphere. The slice cultures were then switched to 25% horse serum, 50% BEM and EBSS modified so that the potassium concentration was 2.66 mM, for another 5 DIV. […]
After different treatments some of the hippocampal slices were fixed in periodate/lysine/paraformaldehyde solution (Mclean, et al. 1974) at 33° C. for 5 h and then kept in 1% Triton-x-100 in PBS (pH 7.4) for 72 h at room temperature to improve the penetration of the antibodies. […] Peroxidase was detected using 0.05% diaminobenzidine (DAB) and H2O2 (0.01%) for 10 min.

[5] = biological target: T1, PP-2A; assay: PP-2A activity after in vitro addition to 16,000xg extract of hippocampal slices; assay type: biochemical
Experimental: as §2
For this purpose we treated the hippocampal slices in culture either with 100 nM OA plus 10 μM Memantine or with OA alone for 24 h, followed by a wash and then treatment with or without Memantine for another 24 h.

[6] = 100 nM OA plus 10 μM Memantine 24 h, or OA 24 h, wash, then Memantine 24 h
[7] = 100 nM OA, 10 μM Memantine, 24 h
[8] = Memantine 10 to 30 μM, or 24 h to 48 h

SMILES: CC12CC3CC(C)(C1)CC(N)(C3)C2 [Memantine, 1-amino-3,5-dimethyl adamantane]
- restoration of OA-inhibited PP-2A activity ([1]; 100 nM OA and 1, 10 or 30 μM Memantine, 3-48 h (FIG. 2a), p<0.02): restored the OA-inhibited PP-2A activity to normal level
- restoration of PP-2A activity [1, 6]: restored the PP-2A activity to normal level; also recorded: almost completely restored; also recorded: restored the activities of both PP-2A and CaMKII
- restoration of OA-inhibited PP-2A activity [1, 7]: practically completely restored; also recorded: restored the OA-induced changes in the activities of PP-2A, CaMKII and PKA to normal levels
- restoration of OA-inhibited PP-2A activity ([1]; 5 μM compound): restoration
- additional effect on restoration of PP-2A activity [1, 8]: Neither increase of Memantine from 10 μM to 30 μM nor duration of the treatment from 24 h to 48 h resulted in any significant additional effect
- concentration giving full effect on restoration of PP-2A activity ([1]; OA-treated slices): 10 µM
- lowest concentration at which restoration of PP-2A activity was observed ([1]; OA-treated slices): 1 µM
- effect on PP-2A activity ([1]; after 0.3 mM glutamate 1 h, 10 μM Memantine or 15 μM MK801): no effect
- effect on PP-2A activity in control (untreated) slices ([1]; no OA): no significant effect
- restoration of OA-stimulated CaMKII activity ([2]; 100 nM OA and 1, 10 or 30 μM Memantine, 3-48 h (FIG. 2b), p<0.02): restored the OA-stimulated CaMKII activity to normal level
- restoration of CaMKII activity [2, 6]: Restoration of CaMKII activity; also recorded: almost completely restored; also recorded: restored the activities of both PP-2A and CaMKII
- restoration of OA-stimulated CaMKII activity [2, 7]: restored the OA-induced changes in the activities of PP-2A, CaMKII and PKA to normal levels; also recorded: practically completely restored
- additional effect on restoration of CaMKII activity [2, 8]: Neither increase of Memantine from 10 μM to 30 μM nor duration of the treatment from 24 h to 48 h resulted in any significant additional effect
- concentration giving full effect on restoration of CaMKII activity ([2]; OA-treated slices): 10 µM
- lowest concentration at which restoration of CaMKII activity was observed ([2]; OA-treated slices): 1 µM
- CaMKII activity after replacement of glutamate ([2]; after 0.3 mM glutamate, fresh medium with or without 10 μM Memantine or 15 μM MK801): restored the CaMKII activity to normal level
- effect on CaMKII activity in control (untreated) slices ([2]; no OA): no significant effect
- restoration of OA-induced change in PKA activity [3, 7]: restored the OA-induced changes in the activities of PP-2A, CaMKII and PKA to normal levels
- concentration (as low as) restoring OA-induced increase in PKA activity to normal level ([3]; 100 nM OA, p<0.05): 1 µM
- effect on PKA activity in control/untreated cultures ([3]; no OA): no significant effect
- neurofilament (pNF-H/M, SMI 31) immunostaining ([4]; then 10 μM Memantine 24 h): reduced these changes; also recorded: partially reversed
- effect on PP-2A activity of extract of slices cultured with 100 nM OA for 24 h ([5]; Memantine 1-10 μM added to extract): no significant effect; also recorded: failed to restore
- effect on PP-2A activity inhibited in extract with 100 nM OA ([5]; Memantine 1 to 60 μM added to extract): no significant effect

SMILES: C=C1[C@@H](O)[C@@H]2O[C@]3(CC[C@H](/C=C/[C@@H](C)[C@@H]4CC(C)=C[C@@]5(O[C@H](C[C@@](C)(O)C(=O)O)CC[C@H]5O)O4)O3)CC[C@H]2O[C@@H]1[C@@H](O)C[C@H](C)[C@H]1O[C@@]2(CCCCO2)CC[C@H]1C [OA, Okadaic Acid]
- inhibition (decrease) of PP-2A activity ([1]; 100 nM OA, 24 h): ~40%
- inhibition (decrease) of PP-2A activity ([1]; 1000 nM (1 μM) OA, 48 h, 1 µM): ~75%
- inhibition at 0.1 µM ([1]; read-out: inhibition (decrease) of PP-2A activity, 100 nM OA, 24 h): 42%
- inhibition at 1 µM ([1]; read-out: inhibition (decrease) of PP-2A activity, 1000 nM (1 μM) OA, 48 h): 78%
- inhibition at 0.01 µM ([1]; read-out: inhibition of PP-2A activity, 10 nM OA, 24 h): ~20%
- inhibition at 1 µM ([1]; read-out: inhibition of PP-2A activity, 1 μM OA, 24 h): ~65%
- increase in CaMKII activity ([2]; 10 nM OA, 24 h): ~20%
- CaMKII activity as % of control ([2]; 100 nM OA, 24 h): 180%
- increase in CaMKII activity ([2]; 100 nM OA, 24 h): ~70%
- increase in CaMKII activity ([2]; 1,000 nM OA, 24 h): ~140%
- CaMKII activity as % of control ([2]; 1000 nM OA, 24 h): 240%
- change in CaMKII activity ([2]; OA-treated slice cultures): marked increase
- increase in PKA activity ([3]; 100 nM OA, 24 h or 48 h): ~20%
- change in PKA activity ([3]; OA-treated slice cultures): no significant changes; also recorded: no significant alteration
- neurofilament (pNF-H/M, SMI 31) immunostaining ([4]; then medium 24 h): immunostaining was increased; also recorded: an increase in phosphorylation and accumulation of NF-H/M
- inhibition at 0.1 µM ([5]; read-out: inhibition of PP-2A activity, 100 nM OA added to extract of untreated cultures): 90%
